Where “and” joins values, the source holds several entries; their conditions need not be identical. Identical values can stand only once.
Columns and labels:
[1] = system: Zika virus; experiment: (§1) Functional CPE-based assay to measure dose dependent changes in antiviral-drug inhibitory efficacy against Zika virus MR766 in Vero E6 miRFP670 cells (cotreated with P-gp inhibitor, CP100356). Cells are treated with antiviral candidates that are serially diluted. EC50 is reported via analysis of MTS assay as a readout of CPE. The assay has been performed by KU Leuven.; format: organism-based, Chlorocebus sabaeus, Vero C1008; conditions: for EC90: P-gp concentration 500 nM, P-gp inhibitor CP100356
[2] = system: dengue virus type 2; experiment: Functional assay to measure dose dependent changes in antiviral-drug inhibitory efficacy against Dengue virus type 2 New Guinea C in Vero E6 miRFP670 cells (cotreated with P-gp inhibitor, CP100356). Cells are treated with antiviral candidates that are serially diluted, following infection, cells are fixed. EC50 is reported via analysis of fluorescence intensity using high-content imager. The …; format: organism-based, Chlorocebus sabaeus, Vero C1008
[3] = system: Zika virus; experiment: as §1, with “cells.” for “cells (cotreated with P-gp inhibitor, CP100356).”; format: organism-based, Chlorocebus sabaeus, Vero C1008; conditions: Zika virus; for EC50: Vero C1008
[4] = system: Zika virus; experiment: EC50 is reported via analysis of immunofluorescence staining. The assay has been performed by Icahn School of Medicine at Mount Sinai.; format: functional, organism-based, Chlorocebus sabaeus, VeroE6/TMPRSS2; conditions: Zika virus

O=C(Nc1cc(Cl)cc(C(=O)Nc2ccc(C3CCNCC3)cc2)c1)OCc1ccccc1
EC50 ([1]; Zika virus, Vero C1008): > 50 µM | EC90 ([1]; Zika virus, Vero C1008, Maximum measured 2.883 %, Minimum measured -3.299 %): > 50 µM | EC90 ([2]; Baseline response 0 %, Hill slope -20.516, Maximum measured 137.543 %, Maximum response 100 %, Minimum measured 2.498 %, P-gp concentration 500 nM, R squared 0.862, P-gp inhibitor CP100356): 1.68 µM | EC50 ([2]; Dengue virus, Vero C1008): 2.86 µM | EC90 ([2]; Dengue virus, Vero C1008): 3.23 µM | EC50 ([2]; vero c1008): 1.51 µM | EC50 [3]: > 50 µM | EC90 ([3]; Vero C1008, Maximum measured […], Minimum measured -3.389 %): > 50 µM

O=C1Cc2c(cccc2C(=O)Nc2ccc3c(c2)CNC3)N1
EC50 ([1]; Zika virus, Vero C1008): > 50 µM | EC90 ([1]; Zika virus, Vero C1008, Baseline response 0 %, Hill slope 0.131, Maximum measured 3.439 %, Maximum response 100 %, Minimum measured 0.392 %, R squared 0.059): > 50 µM | EC50 ([2]; Dengue virus, Vero C1008): > 50 µM | EC90 ([2]; Dengue virus, Vero C1008, Maximum measured 146.808 %, Minimum measured 90.834 %, P-gp concentration 500 nM, P-gp inhibitor CP100356): > 50 µM | EC50 [3]: > 50 µM | EC90 ([3]; Vero C1008, Baseline response 0 %, Hill slope 0.284, Maximum measured 8.076 %, Maximum response 100 %, Minimum measured -0.771 %, R squared 0.143): > 50 µM

CC(C)NC(=O)[C@H](Nc1ccc2c(c1)CNC2)c1cc(Cl)cc2[nH]ncc12
EC90 ([1]; Baseline response 0 %, Hill slope 0.274, Maximum measured 19.104 %, Maximum response 100 %, Minimum measured -8.849 %, R squared 0.058): > 50 µM | EC90 ([1]; Baseline response 0 %, Hill slope 0.987, Maximum measured 78.474 %, Maximum response 100 %, Minimum measured 2.604 %, R squared 0.941): > 50 µM | EC90 ([1]; Zika virus, Vero C1008, Baseline response 0 %, Hill slope 2.014, Maximum measured 45.209 %, Maximum response 100 %, Minimum measured -1.87 %, R squared 0.776): > 50 µM | EC50 ([1]; vero c1008): > 50 µM and 5.7 µM | EC90 ([2]; Dengue virus, Vero C1008, Maximum measured 125.719 %, Minimum measured 102.313 %, P-gp concentration 500 nM, P-gp inhibitor CP100356): > 50 µM | EC90 ([2]; Dengue virus, Vero C1008, Maximum measured 136.006 %, Minimum measured 106.773 %, P-gp concentration 500 nM, P-gp inhibitor CP100356): > 50 µM | EC90 ([2]; Dengue virus, Vero C1008, Maximum measured 137.073 %, Minimum measured 93.467 %, P-gp concentration 500 nM, P-gp inhibitor CP100356): > 50 µM | EC90 ([2]; Dengue virus, Vero C1008, Baseline response 0 %, Hill slope 0.455, Maximum measured 96.007 %, Maximum response 100 %, Minimum measured 82.569 %, P-gp concentration 500 nM, R squared 0.098, P-gp inhibitor CP100356): > 6.25 µM | EC50 ([2]; vero c1008): > 50 µM | EC50 ([4]; VeroE6/TMPRSS2): > 16.7 µM | EC90 ([4]; VeroE6/TMPRSS2, Maximum measured 103.391 %, Minimum measured 35.108 %, P-gp concentration 2 uM, P-gp inhibitor Elacidar): > 16.7 µM | EC50 [3]: > 50 µM | EC90 ([3]; Vero C1008, Maximum measured -0.394 %, Minimum measured -3.218 %): > 50 µM

CNC(=O)[C@H](Nc1cc(CN)cc(C(=O)O)c1)c1cc(Cl)cc(NC(=O)OCc2ccccc2)c1
EC50 ([2]; Dengue virus, Vero C1008): > 50 µM | EC90 ([2]; Dengue virus, Vero C1008, Maximum measured 124.943 %, Minimum measured 103.159 %, P-gp concentration 500 nM, P-gp inhibitor CP100356): > 50 µM | EC50 [3]: > 50 µM | EC90 ([3]; Vero C1008, Baseline response 0 %, Hill slope -2.362, Maximum measured 1.225 %, Maximum response 100 %, Minimum measured -2.193 %, R squared 0.027): > 50 µM

NCc1cccc(NC(=O)[C@@H](NC(=O)OCc2ccccc2)c2ccc(-c3cc4cccnc4s3)cc2)c1
EC50 ([2]; Dengue virus, Vero C1008): > 50 µM | EC90 ([2]; Dengue virus, Vero C1008, Baseline response 0 %, Hill slope -1.813, Maximum measured 108.419 %, Maximum response 100 %, Minimum measured 62.17 %, P-gp concentration 500 nM, R squared 0.703, P-gp inhibitor CP100356): > 50 µM | EC50 [3]: > 50 µM | EC90 ([3]; Vero C1008, Baseline response 0 %, Hill slope 2.61, Maximum measured 41.685 %, Maximum response 100 %, Minimum measured -5.482 %, R squared 0.949): > 50 µM

CC(C)Oc1ccc(S(=O)(=O)Nc2ccc(Cl)cc2C(=O)O)cc1
EC50 ([2]; Dengue virus, Vero C1008): 11.1 µM | EC90 ([2]; Dengue virus, Vero C1008, Baseline response 0 %, Hill slope -49.91, Maximum measured 106.831 %, Maximum response 100 %, Minimum measured 0.108 %, P-gp concentration 500 nM, R squared 0.989, P-gp inhibitor CP100356): 11.6 µM | EC50 [3]: > 50 µM | EC90 ([3]; Vero C1008, Baseline response 0 %, Hill slope 0.349, Maximum measured 6.596 %, Maximum response 100 %, Minimum measured -0.897 %, R squared 0.277): > 50 µM

CC(=O)NCc1cccc(NC(=O)c2cc(Cl)cc(NC(=O)OCc3ccccc3)c2)c1
EC50 ([2]; Dengue virus, Vero C1008): 10.4 µM | EC90 ([2]; Dengue virus, Vero C1008, Baseline response 0 %, EC90 CI (lower) 4.143 uM, EC90 CI (upper) 6.94 uM, Hill slope -3.293, Maximum measured 105.977 %, Maximum response 100 %, Minimum measured 1.058 %, P-gp concentration 500 nM, R squared 0.979, P-gp inhibitor CP100356): 20.4 µM | EC50 [3]: > 50 µM | EC90 ([3]; Vero C1008, Baseline response 0 %, Hill slope 0.809, Maximum measured 24.23 %, Maximum response 100 %, Minimum measured -4.371 %, R squared 0.519): > 50 µM
